From ChEMBL document CHEMBL4004838, “Design and synthesis of novel phenyl -1, 4-beta-carboline-hybrid molecules as potential anticancer agents” (Eur J Med Chem, 2017)
Active and inactive are the calls of the source. The calls are words filed in the database; no cut-off is given here.

Assays:
OVCAR-5 = assay: Growth inhibition of human OVCAR5 cells incubated for 48 hrs by sulforhodamine B assay; type: functional; conditions: OVCAR-5, 48 h
EKVX [1] = assay: Growth inhibition of human EKVX cells assessed as cell growth at 1 uM incubated for 48 hrs by sulforhodamine B assay relative to control; type: functional; conditions: read-out: Activity
UACC-62 [2] = assay: Growth inhibition of human UACC62 cells assessed as cell growth at 1 uM incubated for 48 hrs by sulforhodamine B assay relative to control; type: functional; conditions: UACC-62, 48 h, read-out: Activity
K562 [3] = assay: Growth inhibition of human K562 cells assessed as cell growth at 0.01 uM incubated for 48 hrs by sulforhodamine B assay relative to control; type: functional; conditions: K562, 48 h, read-out: Activity
UO-31 [4] = assay: Growth inhibition of human UO31 cells incubated for 48 hrs by sulforhodamine B assay; type: functional; conditions: UO-31, 48 h
SF-295 = assay: Growth inhibition of human SF295 cells assessed as cell growth at 1 uM incubated for 48 hrs by sulforhodamine B assay relative to control; type: functional; conditions: SF-295, 48 h, read-out: Activity
UACC-62 [5] = assay: Growth inhibition of human UACC62 cells assessed as cell growth at 0.1 uM incubated for 48 hrs by sulforhodamine B assay relative to control; type: functional; conditions: UACC-62, 48 h, read-out: Activity
U-251 = assay: Growth inhibition of human U251 cells assessed as cell growth at 1 uM incubated for 48 hrs by sulforhodamine B assay relative to control; type: functional; conditions: U-251, 48 h, read-out: Activity
DU-145 = assay: Growth inhibition of human DU145 cells assessed as cell growth at 0.01 uM incubated for 48 hrs by sulforhodamine B assay relative to control; type: functional; conditions: DU-145, 48 h, read-out: Activity
NCI-H460 = assay: Growth inhibition of human NCI-H460 cells assessed as cell growth at 0.1 uM incubated for 48 hrs by sulforhodamine B assay relative to control; type: functional; conditions: NCI-H460, 48 h, read-out: Activity
NCI-H23 [6] = assay: Growth inhibition of human NCI-H23 cells assessed as cell growth at 0.1 uM incubated for 48 hrs by sulforhodamine B assay relative to control; type: functional; conditions: NCI-H23, 48 h, read-out: Activity
SF-268 [7] = assay: Growth inhibition of human SF268 cells assessed as cell growth at 0.1 uM incubated for 48 hrs by sulforhodamine B assay relative to control; type: functional; conditions: SF-268, 48 h, read-out: Activity
KM12 = assay: Growth inhibition of human KM12 cells incubated for 48 hrs by sulforhodamine B assay; type: functional; conditions: KM12, 48 h
K562 [8] = assay: Growth inhibition of human K562 cells incubated for 48 hrs by sulforhodamine B assay; type: functional; conditions: K562, 48 h
Malme-3M [9] = assay: Growth inhibition of human MALME-3M cells assessed as cell growth at 1 uM incubated for 48 hrs by sulforhodamine B assay relative to control; type: functional; conditions: read-out: Activity
Bos taurus = organism: Bos taurus; assay: Induction of calf thymus DNA intercalation assessed as compound-DNA complex formation at 5 uM incubated for 1 hr by ethidium bromide staining based agarose gel electrophoresis relative to control
OVCAR-4 = assay: Growth inhibition of human OVCAR4 cells assessed as cell growth at 0.01 uM incubated for 48 hrs by sulforhodamine B assay relative to control; type: functional; conditions: OVCAR-4, 48 h, read-out: Activity
UO-31 [10] = assay: Growth inhibition of human UO31 cells assessed as cell growth at 1 uM incubated for 48 hrs by sulforhodamine B assay relative to control; type: functional; conditions: UO-31, 48 h, read-out: Activity
HCC 2998 [11] = assay: Growth inhibition of human HCC2998 cells assessed as cell growth at 100 uM incubated for 48 hrs by sulforhodamine B assay relative to control; type: functional; conditions: HCC 2998, 48 h, read-out: Activity
SNB-19 = assay: Growth inhibition of human SNB19 cells assessed as cell growth at 0.01 uM incubated for 48 hrs by sulforhodamine B assay relative to control; type: functional; conditions: SNB-19, 48 h, read-out: Activity
T47D = assay: Growth inhibition of human T47D cells assessed as cell growth at 1 uM incubated for 48 hrs by sulforhodamine B assay relative to control; type: functional; conditions: read-out: Activity
MDA-MB-468 = assay: Growth inhibition of human MDA-MB-468 cells assessed as cell growth at 0.01 uM incubated for 48 hrs by sulforhodamine B assay relative to control; type: functional; conditions: MDA-MB-468, 48 h, read-out: Activity
MDA-MB-435 = assay: Growth inhibition of human MDA-MB-435 cells assessed as cell growth at 0.01 uM incubated for 48 hrs by sulforhodamine B assay relative to control; type: functional; conditions: MDA-MB-435, 48 h, read-out: Activity
K562 [12] = assay: Growth inhibition of human K562 cells assessed as cell growth at 1 uM incubated for 48 hrs by sulforhodamine B assay relative to control; type: functional; conditions: K562, 48 h, read-out: Activity
NCI-H23 [13] = assay: Growth inhibition of human NCI-H23 cells assessed as cell growth at 0.01 uM incubated for 48 hrs by sulforhodamine B assay relative to control; type: functional; conditions: NCI-H23, 48 h, read-out: Activity
EKVX [14] = assay: Growth inhibition of human EKVX cells assessed as cell growth at 0.01 uM incubated for 48 hrs by sulforhodamine B assay relative to control; type: functional; conditions: read-out: Activity
HCC 2998 [15] = assay: Growth inhibition of human HCC2998 cells assessed as cell growth at 0.1 uM incubated for 48 hrs by sulforhodamine B assay relative to control; type: functional; conditions: HCC 2998, 48 h, read-out: Activity
MCF7 = assay: Growth inhibition of human MCF7 cells assessed as cell growth at 100 uM incubated for 48 hrs by sulforhodamine B assay relative to control; type: functional; conditions: MCF7, 48 h, read-out: Activity
RPMI-8226 = assay: Growth inhibition of human RPMI8226 cells assessed as cell growth at 0.01 uM incubated for 48 hrs by sulforhodamine B assay relative to control; type: functional; conditions: RPMI-8226, 48 h, read-out: Activity
SF-268 [16] = assay: Growth inhibition of human SF268 cells assessed as cell growth at 0.01 uM incubated for 48 hrs by sulforhodamine B assay relative to control; type: functional; conditions: SF-268, 48 h, read-out: Activity
Malme-3M [17] = assay: Growth inhibition of human MALME-3M cells assessed as cell growth at 0.01 uM incubated for 48 hrs by sulforhodamine B assay relative to control; type: functional; conditions: read-out: Activity
SK-MEL-5 = assay: Growth inhibition of human SK-MEL-5 cells assessed as cell growth at 0.01 uM incubated for 48 hrs by sulforhodamine B assay relative to control; type: functional; conditions: SK-MEL-5, 48 h, read-out: Activity
[18] = read-out: LC50 (the source's name)
[19] = read-out: pLC50 (the source's name) (converted)

c1ccc2[nH]c(-c3ccc(-c4nccc5c4[nH]c4ccccc45)cc3)nc2c1 was tested, and the GI50 (OVCAR-5; read-out: GI50) was 2.43 µM, the CC50 (OVCAR-5; [18]) was 5 µM and the TGI (OVCAR-5; read-out: TGI) was 6.47 µM. The GI50 (OVCAR-5; read-out: pGI50 (converted)) was 2.45 µM, the CC50 (OVCAR-5; [19]) was 50.1 µM and the TGI (OVCAR-5; read-out: pTGI (converted)) was 6.46 µM. It also gave a growth at 1 µM (EKVX [1]) of 93%, a growth at 1 µM (UACC-62 [2]) of 80% and a growth at 0.01 µM (K562 [3]) of 104%. It also gave a GI50 (UO-31 [4]; read-out: GI50) of 1.69 µM, a CC50 (UO-31 [4]; [18]) of 6.32 µM and a TGI (UO-31 [4]; read-out: TGI) of 3.27 µM. It also gave a GI50 (UO-31 [4]; read-out: pGI50 (converted)) of 1.7 µM, a CC50 (UO-31 [4]; [19]) of 6.31 µM and a TGI (UO-31 [4]; read-out: pTGI (converted)) of 3.24 µM. For the same compound, the growth at 1 µM (SF-295) was 94%, the growth at 0.1 µM (UACC-62 [5]) was 91% and the growth at 1 µM (U-251) was 98%. It also gave a growth at 0.01 µM (DU-145) of 98%, a growth at 0.1 µM (NCI-H460) of 110% and a growth at 0.1 µM (NCI-H23 [6]) of 93%. The growth at 0.1 µM (SF-268 [7]) was 96%, the LC50 (KM12; read-out: LC50) was 5.29 µM and the GI50 (KM12; read-out: pGI50 (converted)) was 3.63 µM. It also gave an LC50 (KM12; read-out: pLC50 (converted)) of 52.5 µM, a TGI (KM12; read-out: pTGI (converted)) of 15.8 µM and a GI50 (K562 [8]; read-out: GI50) of 2.33 µM. The CC50 (K562 [8]; [18]) was 4.24 µM, the TGI (K562 [8]; read-out: TGI) was 5.47 µM and the GI50 (K562 [8]; read-out: pGI50 (converted)) was 2.34 µM. For the same compound, the CC50 (K562 [8]; [19]) was 42.7 µM, the TGI (K562 [8]; read-out: pTGI (converted)) was 5.5 µM and the growth at 1 µM (Malme-3M [9]) was 96%. The Activity (Bos taurus) was “Active”, the growth at 0.01 µM (OVCAR-4) was 90% and the growth at 1 µM (UO-31 [10]) was 90%. It also gave a growth at 100 µM (HCC 2998 [11]) of 76%, a growth at 0.01 µM (SNB-19) of 91% and a growth at 1 µM (T47D) of 82%. It also gave a growth at 0.01 µM (MDA-MB-468) of 90%, a growth at 0.01 µM (MDA-MB-435) of 93% and a growth at 1 µM (K562 [12]) of 100%. For the same compound, the growth at 0.01 µM (NCI-H23 [13]) was 95%, the growth at 0.01 µM (EKVX [14]) was 94% and the growth at 0.1 µM (HCC 2998 [15]) was 95%. The growth at 100 µM (MCF7) was 72%, the growth at 0.01 µM (RPMI-8226) was 106% and the growth at 0.01 µM (SF-268 [16]) was 97%. It also gave a growth at 0.01 µM (Malme-3M [17]) of 93% and a growth at 0.01 µM (SK-MEL-5) of 94%.
